Reference: publication PMC10185354, “MyosinA is a druggable target in the widespread protozoan parasite Toxoplasma gondii” (PLOS Biology, 2023)

Assays:
[1] = target: T1, TgMyoA (myosinA) (Toxoplasma gondii, UniProt O00934); test: actin-activated ATPase (ADP-Glo) at […] compound; assay type: biochemical
T1 construct: recombinant TgMyoA heavy chain co-expressed with TgMLC1 and TgELC1 in Sf9 cells; with TgMLC1, TgELC1

[2] = target: T1, TgMyoA (myosinA); test: actin-activated ATPase (ADP-Glo) at […] compound; partial inhibition; assay type: biochemical

SMILES | actin-activated ATPase (ADP-Glo) at 20 μM compound [1] | actin-activated ATPase (ADP-Glo) at 20 μM compound; partial inhibition [2]
Clc1ccc(C2(NCc3c[nH]nc3-c3cccs3)CC2)cc1 [VEST2] | inhibition of both in vitro ATPase activity and parasite growth were retained when the p-OMe substituent in KNX-002 was replaced | –
Cc1ccc(C2(NCc3c[nH]nc3-c3cccs3)CC2)cc1 [VEST3] | – | partially retained in analogs containing p-Me (VEST3) or m,p-dichloro (VEST4) substituents
Clc1ccc(C2(NCc3c[nH]nc3-c3cccs3)CC2)cc1Cl [VEST4] | – | partially retained in analogs containing p-Me (VEST3) or m,p-dichloro (VEST4) substituents
